In patent US5620676A, “Biologically active ATP analogs” (priority 1995, dated 1997):
“Also recorded” adds a separate entry of the source. Like-named read-outs stand apart in the source and are kept apart here.

Key:
[1] = molecular target: T1, P2Y receptor (turkey erythrocyte membranes) (Meleagris gallopavo, UniProt P49652); test: Stimulation of phospholipase C (inositol phosphate formation) in turkey erythrocyte membranes; type: biochemical
T1 construct: from tissue; host or cells: washed turkey erythrocytes, ghosts prepared by hypotonic lysis
T1 sequence (P49652 whole entry): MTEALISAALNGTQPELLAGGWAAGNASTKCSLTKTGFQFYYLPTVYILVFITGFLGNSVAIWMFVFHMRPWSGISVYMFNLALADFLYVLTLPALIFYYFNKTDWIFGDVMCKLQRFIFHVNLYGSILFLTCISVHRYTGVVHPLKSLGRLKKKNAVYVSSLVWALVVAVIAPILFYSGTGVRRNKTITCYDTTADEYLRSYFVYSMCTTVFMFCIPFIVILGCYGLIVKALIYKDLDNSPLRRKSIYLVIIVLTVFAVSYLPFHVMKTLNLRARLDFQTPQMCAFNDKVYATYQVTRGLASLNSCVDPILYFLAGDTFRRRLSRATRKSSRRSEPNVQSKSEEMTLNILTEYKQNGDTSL
How it was run: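 Erythrocytes were labelled 18-24 h at 37 °C with [3H]myoinositol, and ghosts were made by hypotonic lysis. Ghosts (≈175 μg protein) were incubated 5 min at 30 °C in Hepes buffer pH 7.0 with 1 μM GTPγS and nucleotide analogs. Total [3H]inositol phosphates were purified by anion exchange; K0.5 averaged from 3-8 dose-response curves.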

[2] = system: P2X receptors; test: Overall activity in P2X receptor systems
[3] = system: P2X and P2Y receptors; test: Overall activity in the seven P2X and P2Y preparations
[4] = system: P2Y receptor (aorta endothelium); test: Relaxation of noradrenalin-contracted rabbit aorta; settings: for activity/potency/selectivity in words, aorta: rabbit aorta endothelial P2Y receptor; for relaxation pD2, aorta: rabbit aorta, log molar units
[5] = molecular target: T2, P2X receptor (urinary bladder) (Cavia porcellus, UniProt A0A286XVA9); test: Contraction of guinea pig isolated urinary bladder detrussor muscle; settings: guinea pig urinary bladder
T2 construct: guinea pig isolated urinary bladder detrussor muscle; from tissue; host or cells: guinea pig isolated urinary bladder detrusor muscle
Protocol: In FIG. 14, the x-axis is also marked in units of the negative log of the molar concentration of applied putative P2Y receptor agonists and the y-axis is marked in units of the percentage relaxation of the 1 μM noradrenalin-induced contraction of rabbit aorta endothelium. In FIGS. 15-16, the x-axis is marked in units of the negative log of the molar concentration of applied putative p^2X receptor agonists and the y-axis is marked in units of the percentage contraction relative to a standard dose of KCl (i.e., 60 mM), as assessed in guinea pig isolated urinary bladder detrussor muscle (FIG. 15) and guinea pig isolated vas deferens (FIG. 16).

[6] = molecular target: T3, P2X receptor (vas deferens) (Cavia porcellus, UniProt A0A286XVA9); test: Contraction of guinea pig isolated vas deferens
T3 sequence (A0A286XVA9 1-399): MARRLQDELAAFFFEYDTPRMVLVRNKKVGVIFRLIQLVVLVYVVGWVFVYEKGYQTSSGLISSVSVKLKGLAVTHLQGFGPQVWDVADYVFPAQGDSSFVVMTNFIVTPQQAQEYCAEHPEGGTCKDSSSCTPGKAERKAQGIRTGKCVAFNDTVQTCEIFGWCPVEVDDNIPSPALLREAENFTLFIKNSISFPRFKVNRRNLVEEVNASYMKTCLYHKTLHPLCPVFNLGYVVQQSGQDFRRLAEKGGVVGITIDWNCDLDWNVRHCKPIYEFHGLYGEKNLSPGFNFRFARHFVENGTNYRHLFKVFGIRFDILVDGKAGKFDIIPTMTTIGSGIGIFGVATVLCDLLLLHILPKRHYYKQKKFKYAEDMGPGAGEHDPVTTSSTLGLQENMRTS

[7] = molecular target: T4, P2X receptor (saphenous artery) (Oryctolagus cuniculus, UniProt G1U3D6); test: Contraction of rabbit saphenous artery; settings: rabbit saphenous artery
T4 construct: and rabbit saphenous artery; from tissue; host or cells: rabbit saphenous artery
T4 sequence (G1U3D6 1-399): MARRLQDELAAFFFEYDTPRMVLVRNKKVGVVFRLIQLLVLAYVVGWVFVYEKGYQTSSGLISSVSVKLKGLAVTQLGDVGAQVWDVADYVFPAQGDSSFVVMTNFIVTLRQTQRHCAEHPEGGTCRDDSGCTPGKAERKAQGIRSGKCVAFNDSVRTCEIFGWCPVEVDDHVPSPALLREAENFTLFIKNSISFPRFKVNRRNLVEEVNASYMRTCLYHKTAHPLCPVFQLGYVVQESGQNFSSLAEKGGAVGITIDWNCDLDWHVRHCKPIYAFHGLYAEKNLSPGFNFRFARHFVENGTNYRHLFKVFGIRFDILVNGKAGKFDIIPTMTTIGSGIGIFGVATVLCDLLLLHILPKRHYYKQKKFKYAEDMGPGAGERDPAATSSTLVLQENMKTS
Text: (§1) Muscular relaxation/contraction: Relaxant responses mediated via P2Y receptors were examined in guinea pig taenia coli, rabbit aorta, and rabbit mesenteric artery, as described by Hoyle et al. (Br. J. Pharmacol., 107, 367-374 (1992a)), Burnstock et al., (Br. J. Pharmacol., 90, 383-391 (1987a)), and Rubino et al., (Eur. J. Pharmacol., 212, 237-240 (1992)). Contractile responses mediated via P2X receptors were examined in the guinea pig urinary bladder and vas deferens, and rabbit saphenous artery, also using standard methods (see Hoyle et al., supra., 1992; Hoyle et al., Br. J. Pharmacol., 99, 617-621 (1990); and Burnstock et al., Br. J. Pharmacol., 90, 111-120 (1987b)).
^c For the saphenous artery, the percentages in brackets are response
at 10 μM relative to the contraction produced by 1 μM α,MeATP
ATP in this assay is very weak (EC50 =
1.78 mM). The highest concentrations of the analogues tested were 3-30

[8] = molecular target: T5, P2Y receptor (taenia coli) (Cavia porcellus, UniProt P59902); test: Relaxation of carbachol-contracted guinea pig taenia coli
T5 construct: Relaxant responses mediated via P2Y receptors were examined in guinea pig taenia coli; from tissue; host or cells: guinea pig taenia coli (carbachol-contracted)
T5 sequence (P59902 whole entry): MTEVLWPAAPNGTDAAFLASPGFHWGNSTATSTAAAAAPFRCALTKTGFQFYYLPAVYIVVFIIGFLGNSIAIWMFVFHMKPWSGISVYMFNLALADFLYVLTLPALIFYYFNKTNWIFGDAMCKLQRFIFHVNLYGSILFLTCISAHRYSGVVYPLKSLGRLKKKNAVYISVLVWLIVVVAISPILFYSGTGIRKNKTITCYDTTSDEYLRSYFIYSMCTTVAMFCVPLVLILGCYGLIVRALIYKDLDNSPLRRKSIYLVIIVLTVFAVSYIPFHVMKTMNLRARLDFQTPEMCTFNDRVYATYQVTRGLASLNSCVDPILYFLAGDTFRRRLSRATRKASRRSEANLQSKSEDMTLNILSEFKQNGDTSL
How it was run: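 Guinea pig taenia coli precontracted with 50 nM carbachol; relaxation to applied P2Y agonists expressed as percentage relaxation against negative log molar agonist concentration.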

[9] = system: P2Y receptors; test: Overall activity in P2Y receptor systems
Protocol: Phospholipase C activity: Stimulation of inositol phosphate formation by compounds of the present invention was measured in turkey erythrocyte membranes as described by Harden et al., supra and Boyer et al., supra. The K0.5 values were averaged from 3-8 independently determined dose-response curves for each compound. Briefly, one ml of washed turkey erythrocytes was incubated in inositol-free medium (DMEM; Gibco) with 0.5-1 mCi of 2-[^3 H]myoinositol (20 Ci/mmol; American Radiolabeled Chemicals Inc., St. Louis, Mo.)for 18-24 h in a humidified atmosphere of 95% air 5% CO2 at 37° C. Erythrocyte ghosts were prepared by rapid lysis in hypotonic buffer (5 mM sodium phosphate, pH 7.4, 5 mM MgCl2, 1 mM EGTA) as described by Boyer et al., supra. Phospholipase C activity was measured in 25 μl of [^3 H]inositol-labeled ghosts (≈175 μg of protein, 200-500,000 cpm/assay) in a medium containing 424 μM CaC12, 0.91 mM MgSO4, 2 mM EGTA, 115 mM KCl, 5 mM KH2 PO4, and 10 mM Hepes, pH 7.0. Assay (100 μl or 200 μl final volume) contained 1 μM GTPγS and the indicated concentrations of nucleotide analogs. Ghosts were incubated at 30° C. for 5 min, and total [^3 H]inositol phosphates were quantitated after purification by anion exchange chromatography according to Harden et al. (supra) and Boyer et al. (supra).
as §1

[10] = system: P2Y receptor (mesenteric artery); test: Relaxation of rabbit mesenteric artery
[11] = turkey erythrocyte membranes, mean ± S.E.M. for at least 2 determinations, read-out: phosphatidyl inositol metabolism (K0.5, nM) erythrocyte

SMILES: CC1(C)O[C@@H]2[C@H](O1)[C@@H](COP(=O)(O)O)O[C@H]2n1cnc2c(N)ncnc21 [2',3'-Isopropylidene-AMP, 2',3'-Isopropylidene AMP]
- EC50 [1, 11]: > 100000 nM
- overall activity in words, P2X systems [2]: inactive in the P2X receptor systems
- overall activity in words, all preparations [3]: Neither was particularly active at either P2X or P2Y receptors
- activity/potency/selectivity in words, aorta ([4]; listed as 2',3'-isopropylidene-AMP): a potent agonist at the rabbit endothelial P2Y receptor
- activity/potency/selectivity in words, aorta ([4]; listed as Isopropylidene-AMP): specific for the aortic endothelial P2Y receptor

SMILES: CC1(C)O[C@@H]2[C@H](O1)[C@@H](COP(=O)(O)OP(=O)(O)OP(=O)(O)O)O[C@H]2n1cnc2c(N)ncnc21 [2',3'-Isopropylidene-ATP, 2',3'-Isopropylidene adenosine 5'-triphosphate]
- activity/potency in words, bladder [5]: limited activity in the urinary bladder
- activity/potency in words, vas deferens [6]: inactive in the vas deferens
- EC50 [1, 11]: 201000 nM
- overall activity in words, all preparations [3]: Neither was particularly active at either P2X or P2Y receptors
- activation at 10 µM ([7]; 10 μM, read-out: response at 10 μM relative to the contraction produced by 1 μM α,MeATP, saph. artery): 7.7%
- activity/potency/selectivity in words, aorta [4]: high selectivity

SMILES: Nc1ncnc2c1ncn2[C@H]1C[C@H](O)[C@@H](COP(=O)(O)OP(=O)(O)OP(=O)(O)O)O1 [2'-Deoxy-ATP, 2'-deoxy-ATP, reference compound]
- fold less potent than ATP, turkey erythrocyte ([1]; relative to ATP): 7 -fold
- activity/potency in words, turkey erythrocyte ([1]; turkey erythrocyte membranes): seven times less potent than ATP in the turkey erythrocyte
- EC50 [1, 11]: 19200 nM
- overall activity in words, P2X systems [2]: inactive in the P2X receptor systems
- overall activity in words, all preparations [3]: inactive in the five other preparations
- activity/potency in words, taenia coli ([8]; guinea pig taenia coli): roughly equipotent with ATP in the taenia coli
- activity/potency in words, taenia coli ([8]; guinea pig taenia coli, listed as 2'-deoxy-ATP): selectivity
- EC50 ([8]; guinea pig taenia coli, log molar units, read-out: relaxation pD2, taenia coli (converted)): 2.51 µM

SMILES: Nc1ncnc2c1ncn2[C@@H]1O[C@@H]2COP(=O)(OP(=O)(O)CP(=O)(O)O)O[C@H]2[C@H]1O (stereo partly drawn) [3',5'-Cyclic-β,γ-methylene adenosine 5'-triphosphate]
- EC50 ([1]; at 10^-5 M, read-out: phosphatidyl inositol metabolism (K0.5) erythrocyte, class symbol): > 10000 nM
- overall activity in words, all preparations ([3]; listed as Cyclized β,γ-methylene ATP): without effect in all seven types of preparation tested
- overall activity in words, all preparations ([3]; listed as β,γ-methylene-adenosine-3',5'-cyclic triphosphate): greatly reduce or abolish activity within most P2X and P2Y preparations

SMILES: Nc1ncnc2c1ncn2[C@@H]1O[C@H](COP(=O)(O)OP(=O)(O)OP(=O)(O)O)[C@@H](N)[C@H]1O [3'-Amino-3'deoxy-ATP, 3'-Amino-3'-deoxyadenosine 5'-triphosphate, reference compound]
- activity/potency in words, bladder [5]: more or less as potent as ATP
- activity/potency in words, vas deferens [6]: more or less as potent as ATP
- times more potent than ATP, turkey erythrocyte ([1]; relative to ATP): approximately 15 times
- EC50 [1, 11]: 193 nM
- overall activity in words, all preparations [3]: generally enhanced potency at P2 receptors
- activity/potency in words, saphenous artery [7]: inactive in the saphenous artery
- relaxation pD2, aorta [4]: 6.4
- EC50 [8]: 3.98 µM
- activity/potency in words, taenia coli ([8]; guinea pig taenia coli): almost as potent as ATP in the taenia coli

SMILES: Nc1ncnc2c1ncn2[C@@H]1O[C@H](COP(=O)(O)OP(=O)(O)OP(=O)(O)O)C[C@H]1O [3'-Deoxy-ATP, 3'-deoxy-ATP, reference compound]
- activity/potency in words, bladder [5]: as active as ATP, or nearly so; also recorded: less potent or equal to potency of ATP
- activity/potency in words, vas deferens [6]: as active as ATP, or nearly so; also recorded: equivalent to the effect of ATP
- EC50 [1, 11]: 75500 nM
- overall activity in words, all preparations [3]: greatly reduce or abolish activity within most P2X and P2Y preparations
- activity/potency in words, saphenous artery [7]: no effect
- overall activity in words, P2Y systems [9]: less potent than 2'-deoxy-ATP at P2Y receptors

SMILES: NCCCCCCNc1nc2c(N)ncnc2n1[C@@H]1O[C@H](COP(=O)(O)OP(=O)(O)OP(=O)(O)O)[C@@H](O)[C@H]1O [8-(6-Aminohexylamino)-ATP, 8-(6-aminohexylamino)-ATP, reference compound]
- activity/potency in words, turkey erythrocyte ([1]; turkey erythrocyte membranes, listed as 8-(6-Aminohexylamino)ATP): somewhat active in turkey erythrocytes
- activity/potency in words, turkey erythrocyte ([1]; turkey erythrocyte membranes, listed as 8-(6-amino-hexylamino)ATP): less potent than ATP at the turkey erythrocyte P2Y receptor
- EC50 [1, 11]: 8200 ± 1200 nM
- overall activity in words, P2X systems [2]: inactive in the P2X receptor systems
- activity/potency in words, mesenteric artery [10]: no activity at the mesenteric artery P2Y receptor
- overall activity in words, P2Y systems [9]: specific for P2Y receptors
- activity/potency/selectivity in words, aorta ([4]; listed as 8-(6-Aminohexylamino)ATP): selective for the endothelial receptors of the rabbit aorta versus the mesenteric artery and taenia coli
- activity/potency/selectivity in words, aorta ([4]; listed as 8-(6-amino-hexylamino)ATP): much more potent than ATP
- activity/potency/selectivity in words, aorta ([4]; listed as 8-(6-aminohexylamino)ATP): high selectivity
- relaxation pD2, aorta [4]: 7.3

SMILES: O=P(O)(O)OP(=O)(O)OP(=O)(O)OC[C@H]1O[C@@H](n2cnc3c2ncn2ccnc32)[C@H](O)[C@@H]1O [N1,N^6 -etheno-ATP, reference compound]
- activity/potency in words, bladder [5]: limited activity in the urinary bladder
- activity/potency in words, vas deferens [6]: inactive in the vas deferens
- EC50 [1, 11]: > 100000 nM
- overall activity in words, all preparations [3]: greatly reduce or abolish activity within most P2X and P2Y preparations
